US8916686B2, “TDF-related compounds and analogs thereof” (Thrasos Innovation, Inc., priority 2004, dated 2014)

Key:
[1] = test system: rat after ligation of the coronary artery; test: LAD occlusion model of myocardial injury (ischemia/reperfusion); type: in vivo
Description: The efficacy of compound SEQ ID #45 in ameliorating the effects of myocardial ischemia was investigated in the rat after ligation of the coronary artery. […] unmanipulated rats, sorted into two large groups by initial body weight (>300 g pre-surgery) were evaluated. Fourteen rats underwent surgery on week, 12 rats underwent surgery on week 2 and rats were sorted into 3 treatment groups: Group 1, PBS; Group 2, positive control TDF-1; Group 3, test article SEQ ID #45 (see Table X).
Three days prior to surgery, a serum sample was collected from the tail vein of each rat (pre-bleed). On the day of surgery, each rat was administered compound intravenously 2 hr prior to surgery. Surgery was performed sequentially after intubation and ventilation with 0.5% isofluorane anesthetic. Lead II ECG was monitored throughout the surgery. A thoracotomy was performed and the main left coronary artery was occluded for 20 min using a snare technique (FIG. 16). Successful occlusion of the artery was confirmed by ST elevation in lead II ECG within the first 5 minutes of ligation, and by frequent ventricular arrhythmia after 10 minutes of ligation. The snare was released to restore blood flow. The original suture loop was left in place for subsequent re-occlusion on Day 7. After initiation of reperfusion, the chest cavity was closed with 2 layers of suture. Rats were weaned from the ventilator and observed until fully conscious and mobile. Antibiotic (QD) and analgesic (Q8D) were provided. Additional serum samples were collected 6, 24, 72 and 120 hours post occlusion. Additional compound, positive control or vehicle treatments were delivered by intravenous injection in the tail vein at 24, 72 and 120 hours post occlusion.
On Day 7, each rat was anesthetized (ketamine:xyline), the chest cavity re-opened and a terminal blood sample (1 ml) was withdrawn from the abdominal vein. Gross pathology (i.e. inflammation) was noted and graded on a 4 point inflammation scale: 0=no inflammation, 1=slight, 2=moderate, 3=severe and 4=complete pericarditis. The left coronary artery was then re-occluded using the existing stitch and a concentrated solution of Evans Blue dye in saline (20 mg/ml; 0.5 ml/rat) was injected into the heart apex to stain the non-ischemic cardiac tissue blue. The heart was then arrested by injection of a saturated solution of potassium chloride into the right ventricle. The heart was then excised, wrapped in cellophane and stored at −20° C. for 1.5 hour. The cold heart was cut into 10 cross-sectional slices (2 mm/slice) and each section was numbered and incubated separately in triphenyltetrazolium chloride (1% TTC in PBS) for 10 minutes at 37° C. prior to fixing in 4% formaldehyde. Subsequently, each slice was photographed. For each slice, the “area at risk (AR)” and the “area occupied by necrosis (AN)” were measured by morphometry. The ratio of AN to AR is a measure of the degree of damage resulting from the occlusion (FIG. 17A-FIG. 17B).

[2] = test system: HK-2 (Human Kidney-2) cells; test: HK-2 cell culture, TNF-alpha induced cytokine production (IL-6 ELISA); type: cell-based
Description: The immortalized PTEC-derived HK-2 (Human Kidney-2) cells (ATCC number CRL-2190) were grown in serum-free keratinocyte medium (GIBCO number 17005-042) supplemented with epidermal growth factor (EGF: 5 ng/mL) and bovine pituitary extract (40 ug/mL) for 48 hours as described previously (Ryan et al (1994) Kidney International 45:48-57). Cells were transferred to 24-well plates at a density of 3×10^5 cells per well. After 24 hours, cells were incubated with fresh medium containing TNF-alpha (5 ng/mL) for 20 hours. Controls received medium alone. Then cells were washed twice with fresh culture medium and further incubated with culture medium alone (medium control, and TNF control wells) or TDF-1 at three different concentrations (40, 200 or 1000 ng/mL) or TDFRP compounds at three different concentrations (4, 20 or 100 uM) for sixty hours. During incubation, cells were kept in a 5% CO2 humid atmosphere at 37° C. At the end of the incubation, the media were removed and stored frozen until assayed. The concentrations of IL-6, IL-8 and sICAM-1 in culture supernatants were measured by specific ELISA (FIG. 10). […]
An 8 point standard curve is prepared using 2-fold serial dilutions in reagent diluent. […] The optical density of each well is determined immediately using a microplate reader (Dynex Revelation 4.22) set to 450 nm and a wavelength correction at 550 nm […]

**Q.** Which results are given for CYFDDSSNVLCKKYRS [SEQ ID NO 45]?
**A.** degree of cardiac inflammation ([1]; LAD occlusion model): reduces the degree of cardiac inflammation; necrotic area to area at risk ratio (IA/AR) ([1]; LAD occlusion model): reduces the necrotic area to area at risk ratio (IA/AR); reduction in inflammation score as compared to PBS-treated animals ([1]; day 7, 10 mg/kg i.v., 4 point inflammation scale): 78%; reduction in AN/AR ratio as compared to PBS-treated animals ([1]; day 7, compound 10 mg/kg i.v., rhmBMP-7 160 μg/kg i.v.): 84%; inflammation and cytotoxic effects toward cardiomyocytes following myocardial infarction ([1]; myocardial ischemia and reperfusion injury): ameliorate inflammation and cytotoxic effects toward cardiomyocytes; TNF-alpha induced inflammatory response (increase in IL-6) in proximal tubule cells [2]: can alleviate this inflammatory response
